Source: patent US10172868B2, “Substituted quinazolines for inhibiting kinase activity” (NeuPharma, Inc., priority 2013, dated 2019)

Experiments:
[1] = system: H1975 cells; experiment: Inhibition of cancer cell growth, MTT assay, H1975; conditions: Homo sapiens, NCI-H1975, 72 h, read-out: IC50 in H1975 cells
[2] = target: EGFR (ErbB1) T790M (Homo sapiens (Human), UniProt P00533, T790M); experiment: Z'-LYTE kinase inhibition assay, EGFR T790M; format: biochemical; conditions: read-out: % inhibition against EGFR T790M (Compound at 1 μM)
Protocol: Inhibitory activities of compounds against BTK, EGFR and EGFR mutants (EGFR L858R, EGFR T790M, EGFR L858R/T790M), FGFR1, FGFR2, JAK2, JAK3 and KDR were measured by Invitrogen using Z'-LYTE® Method as briefly described in the following. Test Compounds are screened in 1% DMSO (final) in the well. For 10 point titrations, 3-fold serial dilutions are conducted from the starting concentration. All ATP Solutions are diluted to a 4× working concentration in Kinase Buffer (50 mM HEPES pH 7.5, 0.01% BRIJ-35, 10 mM MgCl2, 1 mM EGTA). Peptide/Kinase Mixtures are diluted to a 2× working concentration in the appropriate Kinase Buffers as described below. (iii) Peptide/Kinase Mixtures for Measurement of EGFR (ErbB1) T790M: […] After the 1 hour Kinase Reaction incubation, 5 μL of a 1:64 dilution of Development Reagent B is added. Reaction starts by 30-second shaking of mixture consisting of 2.5 μL 4× test compound, […] 2× kinase reaction mixture and 2.5 μL 4×ATP Solution on Bar-coded Corning, low volume NBS, black 384-well plate (Corning Cat. #3676). Then the mixture is incubated for 60-minute at room temperature for the kinase reaction, followed by addition of 5 μL of a 1:1024 dilution of development reagent A and 30-second plate shake. The mixture is then incubated for another 60-minute at room temperature for development reaction. Finally fluorescence is read by plate reader.

[3] = target: EGFR (ErbB1) T790M L858R (Homo sapiens (Human), UniProt P00533, L858R/T790M); experiment: Z'-LYTE kinase inhibition assay, EGFR L858R/T790M; format: biochemical; conditions: for inhibition at 0.0137 µM: read-out: % inhibition against EGFR L858R/T790M (Compound at 0.0137 μM); for inhibition at 1 µM: read-out: % inhibition against EGFR L858R/T790M (Compound at 1 μM); for IC50: read-out: IC50 against EGFR L858R/T790M
How it was run: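 IC50 taken from 10-point, 3-fold serial dilutions tested in 1% DMSO. The mutant kinase and peptide were prepared in HEPES pH 6.5 buffer with BRIJ-35, MgCl2, EGTA and NaN3, then reacted with ATP for 1 h at room temperature. Development reagent was added for a further hour before the fluorescence readout.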

[4] = system: HCC827 cells; experiment: cells; conditions: Homo sapiens, HCC827, 72 h, read-out: IC50 in HCC827 cells
Protocol: Taxol (as a positive control. Sigma) and compounds were dissolved in DMSO (Sigma), and the final concentration of DMSO in the medium was 1%. Tumor cells were plated in 96-well plates at densities of about 4000 cells/well of a 96-well plate and allowed to adhere/grow for 24 h. They were then treated with various concentrations of drug for 72 h, 3-(4,5-Dimethylthiazol-2-yl)-2,5-diphenyltetrazolium bromide (MTT, Sigma) was used to determine the number of viable cells at the time of compound addition and the number of cells remaining after 72 h compound exposure. The number of cells remaining after 72 h was compared to the number of viable cells at the time of compound addition by measuring the absorbance at 570 nm, allowing for the calculation of growth inhibition.
All concentrations of compounds were tested in triplicate and controls were averaged over 4 wells. IC50 was calculated by plotting the concentration of compound vs the percentage of inhibition in treated wells using GraphPad Prism 5.
The scale utilized in Tables 5 is as follows: +++ less than 100 nM; ++ between 100 nM and 500 nM; and + greater than 500 nM.

[5] = target: EGFR (ErbB1) (Homo sapiens (Human), UniProt P00533); experiment: Z'-LYTE kinase inhibition assay, EGFR; format: biochemical; conditions: for inhibition at 1 µM: read-out: % inhibition against EGFR (Compound at 1 μM); for inhibition at 0.041 µM: read-out: % inhibition against EGFR (Compound at 0.041 μM); for IC50: read-out: IC50 against EGFR
How it was run: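 IC50 values derived from 10-point, 3-fold compound dilution series (1% DMSO final) using Z'-LYTE fluorescence readout after 60-min development. Reaction: EGFR (1.1-5.25 ng) with 2 μM peptide, 60 min at room temperature in HEPES pH 7.5 buffer containing MgCl2, MnCl2, EGTA, DTT and BRIJ-35.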

EGFR (ErbB1) T790M L858R, sequence (P00533 25-1210 T790M/L858R): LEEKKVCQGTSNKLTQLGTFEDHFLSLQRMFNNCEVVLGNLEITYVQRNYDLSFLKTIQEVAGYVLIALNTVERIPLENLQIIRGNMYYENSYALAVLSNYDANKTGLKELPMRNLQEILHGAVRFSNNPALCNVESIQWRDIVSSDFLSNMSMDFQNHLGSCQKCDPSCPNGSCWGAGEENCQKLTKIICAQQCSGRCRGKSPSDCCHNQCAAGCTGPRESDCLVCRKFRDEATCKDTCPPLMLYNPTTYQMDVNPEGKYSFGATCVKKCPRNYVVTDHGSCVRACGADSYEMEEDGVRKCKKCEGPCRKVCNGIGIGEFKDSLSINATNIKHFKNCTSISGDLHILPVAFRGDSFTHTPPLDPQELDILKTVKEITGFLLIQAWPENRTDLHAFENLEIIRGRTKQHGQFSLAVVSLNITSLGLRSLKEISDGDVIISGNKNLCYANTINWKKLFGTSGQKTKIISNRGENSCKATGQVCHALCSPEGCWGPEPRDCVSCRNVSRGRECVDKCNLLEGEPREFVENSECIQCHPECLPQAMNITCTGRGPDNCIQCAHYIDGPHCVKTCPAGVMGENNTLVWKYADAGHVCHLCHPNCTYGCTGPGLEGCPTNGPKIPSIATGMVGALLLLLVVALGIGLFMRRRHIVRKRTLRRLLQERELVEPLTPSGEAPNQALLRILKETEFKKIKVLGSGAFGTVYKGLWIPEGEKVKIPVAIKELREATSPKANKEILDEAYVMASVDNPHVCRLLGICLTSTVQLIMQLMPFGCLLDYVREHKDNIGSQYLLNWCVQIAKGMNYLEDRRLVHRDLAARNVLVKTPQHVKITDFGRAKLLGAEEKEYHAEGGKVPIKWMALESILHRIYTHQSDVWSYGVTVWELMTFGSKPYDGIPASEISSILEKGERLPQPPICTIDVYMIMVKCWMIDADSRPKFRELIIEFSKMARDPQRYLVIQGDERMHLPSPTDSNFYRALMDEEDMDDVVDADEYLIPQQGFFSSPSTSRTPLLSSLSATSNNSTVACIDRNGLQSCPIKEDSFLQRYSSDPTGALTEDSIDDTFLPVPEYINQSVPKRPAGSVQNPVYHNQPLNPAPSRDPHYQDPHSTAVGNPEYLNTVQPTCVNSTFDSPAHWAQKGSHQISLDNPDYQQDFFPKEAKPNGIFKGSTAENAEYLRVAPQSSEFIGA
EGFR (ErbB1), sequence (P00533 25-1210): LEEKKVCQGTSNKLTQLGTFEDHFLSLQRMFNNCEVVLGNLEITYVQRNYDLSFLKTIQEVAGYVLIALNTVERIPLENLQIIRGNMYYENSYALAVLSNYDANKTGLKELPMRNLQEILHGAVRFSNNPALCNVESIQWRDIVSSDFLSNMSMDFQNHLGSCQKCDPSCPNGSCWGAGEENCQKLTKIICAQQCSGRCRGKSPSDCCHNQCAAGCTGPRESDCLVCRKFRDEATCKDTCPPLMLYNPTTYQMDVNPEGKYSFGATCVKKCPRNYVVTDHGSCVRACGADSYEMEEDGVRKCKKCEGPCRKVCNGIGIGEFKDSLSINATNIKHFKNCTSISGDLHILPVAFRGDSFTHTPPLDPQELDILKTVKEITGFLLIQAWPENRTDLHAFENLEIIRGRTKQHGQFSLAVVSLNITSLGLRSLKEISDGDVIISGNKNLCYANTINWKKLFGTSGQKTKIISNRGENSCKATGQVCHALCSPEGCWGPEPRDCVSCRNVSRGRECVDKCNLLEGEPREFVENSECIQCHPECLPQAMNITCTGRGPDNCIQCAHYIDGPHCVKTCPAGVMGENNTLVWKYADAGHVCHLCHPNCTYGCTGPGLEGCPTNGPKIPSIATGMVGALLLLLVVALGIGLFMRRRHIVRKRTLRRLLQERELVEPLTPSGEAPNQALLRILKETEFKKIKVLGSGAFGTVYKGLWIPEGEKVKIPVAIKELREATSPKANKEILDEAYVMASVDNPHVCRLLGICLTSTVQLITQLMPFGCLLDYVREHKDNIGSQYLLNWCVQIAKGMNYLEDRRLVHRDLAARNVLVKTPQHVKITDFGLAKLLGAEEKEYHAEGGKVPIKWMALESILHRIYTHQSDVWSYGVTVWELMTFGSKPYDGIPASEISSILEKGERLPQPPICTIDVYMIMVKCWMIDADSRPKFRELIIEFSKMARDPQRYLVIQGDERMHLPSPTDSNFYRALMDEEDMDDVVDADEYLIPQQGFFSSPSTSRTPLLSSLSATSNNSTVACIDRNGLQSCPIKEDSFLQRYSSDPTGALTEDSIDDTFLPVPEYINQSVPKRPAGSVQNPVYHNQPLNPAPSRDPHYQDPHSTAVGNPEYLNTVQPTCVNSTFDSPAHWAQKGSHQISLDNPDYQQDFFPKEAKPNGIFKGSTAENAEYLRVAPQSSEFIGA
EGFR (ErbB1) T790M, sequence (P00533 25-1210 T790M): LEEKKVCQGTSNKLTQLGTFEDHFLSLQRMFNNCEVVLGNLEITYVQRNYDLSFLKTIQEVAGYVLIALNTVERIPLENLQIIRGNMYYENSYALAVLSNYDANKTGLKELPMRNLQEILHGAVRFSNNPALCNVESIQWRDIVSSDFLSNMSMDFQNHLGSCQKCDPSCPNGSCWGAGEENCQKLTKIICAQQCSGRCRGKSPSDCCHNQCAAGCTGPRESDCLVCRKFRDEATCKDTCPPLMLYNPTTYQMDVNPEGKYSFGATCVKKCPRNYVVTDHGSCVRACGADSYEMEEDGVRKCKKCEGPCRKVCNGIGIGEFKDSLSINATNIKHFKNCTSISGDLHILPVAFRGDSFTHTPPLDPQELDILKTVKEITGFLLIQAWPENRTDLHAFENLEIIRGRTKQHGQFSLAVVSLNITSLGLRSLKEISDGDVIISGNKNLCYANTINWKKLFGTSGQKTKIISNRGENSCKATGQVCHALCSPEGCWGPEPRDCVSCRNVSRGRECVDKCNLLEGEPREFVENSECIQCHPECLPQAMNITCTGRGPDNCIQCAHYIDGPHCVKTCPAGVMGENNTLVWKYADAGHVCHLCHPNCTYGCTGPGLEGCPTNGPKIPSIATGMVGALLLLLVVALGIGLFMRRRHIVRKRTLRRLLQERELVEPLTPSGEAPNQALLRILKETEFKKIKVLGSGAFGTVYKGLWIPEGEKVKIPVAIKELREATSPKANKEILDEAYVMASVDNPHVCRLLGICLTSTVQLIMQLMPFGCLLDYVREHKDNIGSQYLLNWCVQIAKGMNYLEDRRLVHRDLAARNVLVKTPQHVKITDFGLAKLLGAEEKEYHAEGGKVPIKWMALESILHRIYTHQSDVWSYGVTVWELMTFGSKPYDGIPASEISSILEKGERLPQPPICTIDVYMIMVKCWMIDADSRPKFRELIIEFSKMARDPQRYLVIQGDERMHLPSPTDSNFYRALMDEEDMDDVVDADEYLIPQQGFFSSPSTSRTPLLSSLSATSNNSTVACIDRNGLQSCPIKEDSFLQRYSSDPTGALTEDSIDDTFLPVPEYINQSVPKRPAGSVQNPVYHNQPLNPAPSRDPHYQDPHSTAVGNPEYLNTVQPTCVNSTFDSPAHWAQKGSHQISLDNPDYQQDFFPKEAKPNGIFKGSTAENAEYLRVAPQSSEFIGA

Structure (SMILES)	IC50 [1] [nM]	inhibition at 1 µM [2] [%]	inhibition at 0.0137 µM [3] [%]	inhibition at 1 µM [3] [%]	IC50 [3] [nM]	IC50 [4] [nM]	inhibition at 1 µM [5] [%]	inhibition at 0.041 µM [5] [%]	IC50 [5] [nM]
C=CC(=O)Nc1cccc(-c2cccc3cnc(Nc4ccc(N5CCOCC5)cc4)nc23)c1 [Example C001, N-(3-(2-((4-morpholinophenyl)amino)quinazolin-8-yl)phenyl)acrylamide]	100 to 500	> 50	< 50	> 50	< 100	< 100	> 50	–	–
C=CC(=O)Nc1cccc(-c2cccc3cnc(Nc4ccc(N5CCOCC5)cc4OC)nc23)c1 [Example C002, N-(3-(2-((2-methoxy-4-morpholinophenyl)amino)quinazolin-8-yl)phenyl)acrylamide]	–	> 50	–	> 50	–	100 to 500	< 50	–	–
C=CC(=O)Nc1cccc(-c2cccc3cnc(Nc4ccc(N5CCN(C)CC5)cc4OC)nc23)c1 [Example C003, N-(3-(2-((2-methoxy-4-(4-methylpiperazin-1-yl)phenyl)amino)quinazolin-8-yl)phenyl)acrylamide]	100 to 500	> 50	> 50	> 50	< 100	< 100	> 50	–	–
c1ccc(-c2cccc3cnc(Nc4ccc(N5CCOCC5)cc4)nc23)cc1 [Example C004, N-(4-morpholinophenyl)-8-phenylquinazolin-2-amine]	> 500	< 50	–	> 50	–	> 500	< 50	–	–
C=CC(=O)Nc1cccc(-c2nccc3c(N)nc(Nc4ccc(N5CCOCC5)cc4)nc23)c1 [Example C005, N-(3-(4-amino-2-((4-morpholinophenyl)amino)pyrido[3,4-d]pyrimidin-8-yl)phenyl)acrylamide]	> 500	< 50	–	< 50	–	100 to 500	> 50	–	–
Fc1ccc(Cl)cc1-c1cccc2cnc(Nc3ccc(N4CCOCC4)cc3)nc12 [Example C007, 8-(5-chloro-2-fluorophenyl)-N-(4-morpholinophenyl)quinazolin-2-amine]	> 500	< 50	–	< 50	–	> 500	< 50	–	–
Clc1cccc(-c2cccc3cnc(Nc4ccc(N5CCOCC5)cc4)nc23)c1 [Example C008, 8-(3-chlorophenyl)-N-(4-morpholinophenyl)quinazolin-2-amine]	> 500	< 50	–	< 50	–	> 500	< 50	–	–
Fc1cccc(-c2cccc3cnc(Nc4ccc(N5CCOCC5)cc4)nc23)c1 [Example C009, 8-(3-fluorophenyl)-N-(4-morpholinophenyl)quinazolin-2-amine]	> 500	< 50	–	< 50	–	> 500	< 50	–	–
Fc1ccccc1-c1cccc2cnc(Nc3ccc(N4CCOCC4)cc3)nc12 [Example C010, 8-(2-fluorophenyl)-N-(4-morpholinophenyl)quinazolin-2-amine]	> 500	< 50	–	< 50	–	> 500	< 50	–	–
Clc1ccccc1-c1cccc2cnc(Nc3ccc(N4CCOCC4)cc3)nc12 [Example C011, 8-(2-chlorophenyl)-N-(4-morpholinophenyl)quinazolin-2-amine]	> 500	< 50	–	< 50	–	> 500	< 50	–	–
C=CC(=O)Nc1cccc(-c2nccc3cnc(Nc4ccc(N5CCOCC5)cc4)nc23)c1 [Example C012, N-(3-(2-((4-morpholinophenyl)amino)pyrido[3,4-d]pyrimidin-8-yl)phenyl)acrylamide]	100 to 500	> 50	–	> 50	–	< 100	< 50	–	–
C=CC(=O)Nc1cccc(-c2cccc3cnc(Nc4ccc(N5CCN(C)CC5)cc4)nc23)c1 [Example C021, N-(3-(2-((4-(4-methylpiperazin-1-yl)phenyl)amino)quinazolin-8-yl)phenyl)acrylamide]	< 100	–	–	–	< 100	< 100	–	> 50	< 100
C=CC(=O)Nc1cccc(-c2cccc3cnc(Nc4ccc(N5CCN(C)CC5)nc4)nc23)c1 [Example C041, N-(3-(2-((6-(4-methylpiperazin-1-yl)pyridin-3-yl)amino)quinazolin-8-yl)phenyl)acrylamide]	100 to 500	–	–	–	< 100	< 100	–	> 50	< 100
C=CC(=O)Nc1cccc(-c2cccc3cnc(Nc4ccc(N5CCN(C)CC5)cc4F)nc23)c1 [Example C044, N-(3-(2-((2-fluoro-4-(4-methylpiperazin-1-yl)phenyl)amino)quinazolin-8-yl)phenyl)acrylamide]	< 100	–	> 50	–	< 100	–	–	> 50	< 100
C=CC(=O)Nc1cccc(-c2cccc3cnc(Nc4ccc(N5CCN(CCF)CC5)cc4)nc23)c1 [Example C053, N-(3-(2-((4-(4-(2-fluoroethyl)piperazin-1-yl)phenyl)amino)quinazolin-8-yl)phenyl)acrylamide]	< 100	–	> 50	> 50	–	–	> 50	< 50	–
C=CC(=O)Nc1cccc(-c2cccc3cnc(Nc4ccc(N5CCN(CCO)CC5)cc4)nc23)c1 [Example C059, N-(3-(2-((4-(4-(2-hydroxyethyl)piperazin-1-yl)phenyl)amino)quinazolin-8-yl)phenyl)acrylamide]	< 100	–	–	–	< 100	< 100	–	> 50	< 100
